In ChEMBL document CHEMBL4118188, “A small diversity library of α-methyl amide analogs of sulindac for probing anticancer structure-activity relationships” (Bioorg Med Chem Lett, 2018):

What was measured:
Format in all cases: functional
HT-29 = assay: Growth inhibition of human HT-29 cells measured after 72 hrs by Celltiter-Glo reagent based assay; conditions: HT-29, 72 h
PC-3 = assay: Growth inhibition of human PC3 cells measured after 72 hrs by Celltiter-Glo reagent based assay; conditions: PC-3, 72 h
MDA-MB-231 = assay: Growth inhibition of human MDA-MB-231 cells measured after 96 hrs by Celltiter-Glo reagent based assay; conditions: MDA-MB-231, 96 h

| Structure (SMILES) | CC50 (HT-29) [µM] | CC50 (PC-3) [µM] | CC50 (MDA-MB-231) [µM] |
| --- | --- | --- | --- |
| COc1cc(/C=C2/C(C)=C(C(C)C(=O)N3CCN(CCCN(C)C)CC3)c3cc(F)ccc32)cc(OC)c1OC (stereo not drawn) | 3.69 | 9.61 | 7.34 |
| CSc1ccc(/C=C2/C(C)=C(C(C)C(=O)NCc3ccccc3)c3cc(F)ccc32)cc1 (stereo not drawn) | 22.9 | > 50 | > 50 |
| CC1=C(C(C)C(=O)N2CCN(CCCN(C)C)CC2)c2cc(F)ccc2/C1=C\c1ccc([S+](C)[O-])cc1 (stereo not drawn) | 32 | > 50 | > 50 |
| CCN1CCC[C@H]1CNC(=O)C(C)C1=C(C)/C(=C/c2ccc(SC)cc2)c2ccc(F)cc21 (stereo partly drawn) | 1.1 | 4.24 | 3.49 |
| CC1=C(C(C)C(=O)N(CCNC(C)C)C(C)C)c2cc(F)ccc2/C1=C\c1ccc([S+](C)[O-])cc1 (stereo not drawn) | 8.06 | 15.2 | 21.3 |
| CCNCCCN(CC)C(=O)C(C)C1=C(C)/C(=C/c2ccc([S+](C)[O-])cc2)c2ccc(F)cc21 (stereo not drawn) | 6.98 | 24.8 | 25.6 |
| CCN(CC)CCNC(=O)C(C)C1=C(C)/C(=C/c2ccc([S+](C)[O-])cc2)c2ccc(F)cc21 (stereo not drawn) | 11.1 | 40 | 36.6 |
| CSc1ccc(/C=C2/C(C)=C(C(C)C(=O)NCCN3CCCCC3)c3cc(F)ccc32)cc1 (stereo not drawn) | 2.03 | 5.06 | 5.32 |
| CSc1ccc(/C=C2/C(C)=C(C(C)C(=O)NCCCN(C)C)c3cc(F)ccc32)cc1 (stereo not drawn) | 2.58 | 7.24 | 6.42 |
| CC1=C(C(C)C(=O)N(C)CCN(C)C(=O)[C@@H]2CCCN2)c2cc(F)ccc2/C1=C\c1ccc([S+](C)[O-])cc1 (stereo partly drawn) | 20.1 | 27.9 | > 50 |
| CSc1ccc(/C=C2/C(C)=C(C(C)C(=O)N3CCN(CCCN(C)C)CC3)c3cc(F)ccc32)cc1 (stereo not drawn) | 1.5 | 4.14 | 3.06 |
| CCN1CCC[C@H]1CNC(=O)C(C)C1=C(C)/C(=C/c2ccc([S+](C)[O-])cc2)c2ccc(F)cc21 (stereo partly drawn) | 9.35 | 41.5 | 24.9 |
| CSc1ccc(/C=C2/C(C)=C(CC(=O)NCCN(C)C)c3cc(F)ccc32)cc1 | 0.65 | 3.12 | 2.67 |
| CSc1ccc(/C=C2/C(C)=C(C(C)C(=O)N(C)CCN(C)C(=O)C3CCCN3)c3cc(F)ccc32)cc1 (single isomer, unassigned) | 2.06 | 5.21 | 3.99 |
| CCNCCN(CC)C(=O)C(C)C1=C(C)/C(=C/c2ccc([S+](C)[O-])cc2)c2ccc(F)cc21 (stereo not drawn) | 9.99 | 26.3 | 27.9 |
| COC(=O)[C@H](Cc1c[nH]cn1)NC(=O)C(C)C1=C(C)/C(=C/c2ccc(SC)cc2)c2ccc(F)cc21 (stereo partly drawn) | 6.62 | 14.4 | 12.7 |
| CC1=C(C(C)C(=O)NCCN(C)C)c2cc(F)ccc2/C1=C\c1ccc([S+](C)[O-])cc1 (stereo not drawn) | 12.7 | > 50 | > 50 |
| CC1=C(C(C)C(=O)N2CCN(CCN(C)C)CC2)c2cc(F)ccc2/C1=C\c1ccc([S+](C)[O-])cc1 (stereo not drawn) | 38.4 | 50 | > 50 |
| CCN(CC)CCN(C)C(=O)C(C)C1=C(C)/C(=C/c2ccc(SC)cc2)c2ccc(F)cc21 (stereo not drawn) | 2.22 | 7.27 | 6.71 |
| CC1=C(C(C)C(=O)NCc2ccccc2)c2cc(F)ccc2/C1=C\c1ccc([S+](C)[O-])cc1 (stereo not drawn) | 17.2 | 15.7 | 26 |
| CNCCCN(C)C(=O)C(C)C1=C(C)/C(=C/c2ccc(SC)cc2)c2ccc(F)cc21 (stereo not drawn) | 1.98 | 4.96 | 3.83 |
| CCN(CC)CCN(CC)C(=O)C(C)C1=C(C)/C(=C/c2ccc(SC)cc2)c2ccc(F)cc21 (stereo not drawn) | 2.31 | 6.59 | 5.98 |
| CC1=C(C(C)C(=O)NCc2ccco2)c2cc(F)ccc2/C1=C\c1ccc([S+](C)[O-])cc1 (stereo not drawn) | > 50 | > 50 | > 50 |
| CC1=C(C(C)C(=O)N2CCC[C@H]2CN2CCCC2)c2cc(F)ccc2/C1=C\c1ccc([S+](C)[O-])cc1 (stereo partly drawn) | 7.82 | 24.4 | 32 |
| CNCCCN(C)C(=O)C(C)C1=C(C)/C(=C/c2ccc([S+](C)[O-])cc2)c2ccc(F)cc21 (stereo not drawn) | 10.5 | 33.7 | 36.8 |
| CSc1ccc(/C=C2/C(C)=C(C(C)C(=O)N3CCC(N4CCCCC4)CC3)c3cc(F)ccc32)cc1 (stereo not drawn) | 1.89 | 4.36 | 4.3 |
